{"source": "paper PMC12250965", "about": "“Design and Synthesis of Sulfonium and Selenonium Derivatives Bearing 3′,5′-O-Benzylidene Acetal Side Chain Structure as Potent α-Glucosidase Inhibitors” (Molecules, 2025)", "key": {"[1]": {"molecular_target": "rat intestinal maltase", "assay": "In vitro α-glucosidase inhibition assay, rat intestinal maltase", "type": "biochemical", "conditions": "rat small intestinal brush border membrane vesicles; maltose substrate; mean ± SD (n = 3); read-out: IC50 against maltase"}, "[2]": {"molecular_target": "T1, rat intestinal sucrase (Rattus norvegicus, UniProt P23739)", "T1 construct": "rat small intestinal brush border membrane vesicles were first prepared; from tissue; host or cells: rat small intestine, brush border membrane vesicles", "T1 sequence (P23739 whole entry)": "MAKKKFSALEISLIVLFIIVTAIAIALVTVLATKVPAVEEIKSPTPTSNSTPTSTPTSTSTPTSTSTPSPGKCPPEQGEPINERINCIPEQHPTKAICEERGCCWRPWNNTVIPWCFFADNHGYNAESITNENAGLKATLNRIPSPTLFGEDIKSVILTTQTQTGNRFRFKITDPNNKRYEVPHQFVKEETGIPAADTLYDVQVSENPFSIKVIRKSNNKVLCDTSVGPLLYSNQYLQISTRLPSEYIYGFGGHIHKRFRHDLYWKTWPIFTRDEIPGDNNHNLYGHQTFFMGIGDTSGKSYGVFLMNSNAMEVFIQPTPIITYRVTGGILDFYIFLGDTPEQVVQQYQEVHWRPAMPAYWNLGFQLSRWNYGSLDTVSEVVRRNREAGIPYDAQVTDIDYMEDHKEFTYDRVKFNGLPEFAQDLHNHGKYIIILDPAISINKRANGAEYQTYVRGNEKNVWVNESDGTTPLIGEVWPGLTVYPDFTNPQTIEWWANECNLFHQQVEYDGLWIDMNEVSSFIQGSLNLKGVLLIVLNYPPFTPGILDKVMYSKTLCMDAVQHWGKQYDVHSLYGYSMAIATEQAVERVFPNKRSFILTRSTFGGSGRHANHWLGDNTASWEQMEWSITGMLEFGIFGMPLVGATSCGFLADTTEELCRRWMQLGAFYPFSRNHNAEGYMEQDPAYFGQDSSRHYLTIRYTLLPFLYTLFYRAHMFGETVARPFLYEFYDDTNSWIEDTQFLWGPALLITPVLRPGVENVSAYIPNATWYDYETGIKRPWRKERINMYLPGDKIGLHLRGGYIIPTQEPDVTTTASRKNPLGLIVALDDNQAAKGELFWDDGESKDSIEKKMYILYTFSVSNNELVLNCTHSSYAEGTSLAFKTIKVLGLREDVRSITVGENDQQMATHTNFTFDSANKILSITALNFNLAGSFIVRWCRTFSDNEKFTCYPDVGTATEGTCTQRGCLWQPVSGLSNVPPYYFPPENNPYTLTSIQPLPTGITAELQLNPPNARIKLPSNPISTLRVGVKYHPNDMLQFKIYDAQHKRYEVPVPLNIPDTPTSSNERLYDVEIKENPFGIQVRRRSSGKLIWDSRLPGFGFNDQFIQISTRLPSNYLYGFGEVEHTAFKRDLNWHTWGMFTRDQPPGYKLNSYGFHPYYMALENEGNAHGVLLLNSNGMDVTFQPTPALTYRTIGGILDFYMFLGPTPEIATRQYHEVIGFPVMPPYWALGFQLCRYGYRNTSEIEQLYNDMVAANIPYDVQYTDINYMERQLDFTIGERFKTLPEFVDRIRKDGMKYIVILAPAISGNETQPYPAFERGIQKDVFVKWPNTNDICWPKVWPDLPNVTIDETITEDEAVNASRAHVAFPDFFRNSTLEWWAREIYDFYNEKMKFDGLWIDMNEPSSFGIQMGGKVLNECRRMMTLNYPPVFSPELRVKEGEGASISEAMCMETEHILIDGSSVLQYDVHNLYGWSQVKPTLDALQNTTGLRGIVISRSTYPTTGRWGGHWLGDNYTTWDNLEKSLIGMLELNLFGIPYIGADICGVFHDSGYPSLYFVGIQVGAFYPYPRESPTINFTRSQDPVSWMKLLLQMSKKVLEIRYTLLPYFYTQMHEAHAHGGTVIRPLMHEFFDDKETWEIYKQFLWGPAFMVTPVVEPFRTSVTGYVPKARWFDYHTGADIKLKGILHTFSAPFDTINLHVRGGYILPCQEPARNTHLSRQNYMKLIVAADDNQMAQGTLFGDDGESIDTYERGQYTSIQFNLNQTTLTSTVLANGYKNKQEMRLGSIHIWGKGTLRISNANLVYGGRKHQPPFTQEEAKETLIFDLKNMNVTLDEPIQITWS", "assay": "In vitro α-glucosidase inhibition assay, rat intestinal sucrase", "type": "biochemical", "conditions": "rat small intestinal brush border membrane vesicles; sucrose substrate; mean ± SD (n = 3); read-out: IC50 against sucrase"}, "[3]": {"system": "sucrose-loaded mice", "assay": "Sucrose loading test (hypoglycemic effect)", "type": "in vivo, ICR mice", "conditions": "sucrose loading […] p.o.", "experimental": "Research has shown a strong association between the 2 h postprandial blood glucose level and the risk of cardiovascular events, diabetic microvascular complications such as retinopathy, and the progression of macrovascular diseases. […] Considering this underlying pathological process, α-glucosidase inhibitors, which efficiently regulate postprandial glucose fluctuations, hold significant therapeutic promise for alleviating diabetes-related complications. […] Subsequently, doses were reduced to 1.0 mg/kg.\n(§1) The animal experimental protocols in this study were approved by the Experimental Animal Center of Shanghai Institute of Materia Medica (Shanghai, China). Male ICR (Institute of Cancer Research) mice (29−33 g) after an overnight fast were used for acute maltose and sucrose loading tests. In the maltose loading test, maltose (2.0 mpk of body weight) and the inhibitors and voglibose were dissolved in distillation−distillation water and administered to the mice via a stomach tube. A control group was loaded with distillation−distillation water. In the sucrose loading test, sucrose (2.5 g/kg of body weight) and the inhibitor miglitol were dissolved in distillation−distillation water and administered to the mice via a stomach tube. A control group was loaded with distillation−distillation water. Blood samples for glucose measurements were obtained from the tail vein at 0, 15, 30, 60, and 120 min after maltose and sucrose loading. The blood glucose levels were measured by a portable kit, StatStrip Xpress (Nova Biomedical Co., Ltd., Waltham, MA, USA). The AUC over was calculated by the trapezoidal method."}, "[4]": {"system": "maltose-loaded mice", "assay": "Maltose loading test (hypoglycemic effect)", "type": "in vivo, ICR mice", "conditions": "maltose loading 2.0 g/kg, 1.0 mpk, 1 mg/kg", "experimental": "A maltose loading test on compounds 10, 20c, neoponkoranol, and positive control (voglibose) was conducted to further evaluate their in vivo hypoglycemic effects against maltase.\nas §1, with “In the maltose loading test, maltose (2.0 mpk of body weight) and the inhibitors and voglibose were dissolved in distillation−distillation water and administered to the mice via a stomach tube.” left out"}, "[5]": {"molecular_target": "rat intestinal maltase", "conditions": "literature value ^[a]; read-out: IC50 against maltase (converted); cited from earlier work"}, "[6]": {"molecular_target": "T1, rat intestinal sucrase", "conditions": "literature value ^[a]; read-out: IC50 against sucrase (converted); cited from earlier work"}}, "note": "Like-named read-outs stand apart in the source and are kept apart here.", "data": [{"smiles": "OC[C@@H]1[C@@H](O)[C@H](O)C[S@@+]1C[C@@H](O)[C@@H](O)[C@H](O)[C@@H](O)CO", "note": "[neoponkoranol]", "values": [{"measurement": "IC50", "setting": "[1]", "value": "7.3 ± 1.5", "unit": "µM"}, {"measurement": "IC50", "setting": "[2]", "value": "2.8 ± 0.5", "unit": "µM"}, {"measurement": "Declined Rate of Blood Glucose Levels, 15 min", "setting": "[3]; 1.0 mpk", "value": 33.5, "unit": "%"}, {"measurement": "Declined Rate of Blood Glucose Levels, 30 min", "setting": "[3]; 1.0 mpk", "value": 36.4, "unit": "%"}, {"measurement": "Declined Rate of Blood Glucose Levels, 60 min", "setting": "[3]; 1.0 mpk", "value": 27.1, "unit": "%"}, {"measurement": "Declined Rate of AUC", "setting": "[3]; 1.0 mpk", "value": 27.1, "unit": "%"}, {"measurement": "Declined Rate of Blood Glucose Levels, 15 min", "setting": "[3]; 10.0 mpk", "value": 42.8, "unit": "%"}, {"measurement": "Declined Rate of Blood Glucose Levels, 30 min", "setting": "[3]; 10.0 mpk", "value": 49.5, "unit": "%"}, {"measurement": "Declined Rate of Blood Glucose Levels, 60 min", "setting": "[3]; 10.0 mpk", "value": 43.5, "unit": "%"}, {"measurement": "Declined Rate of AUC", "setting": "[3]; 10.0 mpk", "value": 39.4, "unit": "%"}, {"measurement": "Declined Rate of Blood Glucose Levels, 15 min", "setting": "[4]; 15 min", "value": 42.3, "unit": "%"}, {"measurement": "Declined Rate of Blood Glucose Levels, 30 min", "setting": "[4]; 30 min", "value": 33.9, "unit": "%"}, {"measurement": "Declined Rate of Blood Glucose Levels, 60 min", "setting": "[4]; 60 min", "value": 19.4, "unit": "%"}, {"measurement": "Declined Rate of AUC", "setting": "[4]; AUC", "value": 21.5, "unit": "%"}, {"measurement": "IC50", "setting": "[5]", "value": 6.9, "unit": "µM"}, {"measurement": "IC50", "setting": "[6]", "value": 2.3, "unit": "µM"}]}]}
